Our source for the Intrinsic activity, pD2 and Ki values is ChEMBL document CHEMBL1125402, “Conformational effects on the activity of drugs. 13. A revision of previously proposed models for the activation of alpha- and beta-adrenergic receptors” (J Med Chem, 1992).

The target of test [1] is T1, Adrenergic receptor alpha-1 (Rattus norvegicus) (UniProt P15823+P23944+P43140). Kind of test: Compound was evaluated for alpha adrenoceptor agonistic activity towards Alpha-1 adrenergic receptor of isolated rat vas deferens (exp 2). It is filed as functional, tissue-based.
In test [2] the target is Beta-2 adrenergic receptor (Cavia porcellus) (UniProt Q8K4Z4).
Description: Compound was evaluated for beta adrenoceptor agonistic activity towards beta 2 receptor of isolated guinea pig tracheal strip
In test [3] the target is Beta-1 adrenergic receptor (Cavia porcellus) (UniProt B0FL73). Kind of test: Intrinsic activity was expressed as the ratio between maximal response elicited by compound and that elicited by full agonist ISO towards beta 1 receptor of isolated guinea pig atria. It is filed as functional.
For test [4] the target is unchanged. The test is described as follows: Compound was evaluated for beta adrenoceptor agonistic activity towards beta 1 receptor of isolated guinea pig atria. Type of test: functional.
In test [5] the target is T2, Adrenergic receptor alpha-1 (Rattus norvegicus, UniProt P15823+P23944+P43140).
T2 sequence (P15823 whole entry): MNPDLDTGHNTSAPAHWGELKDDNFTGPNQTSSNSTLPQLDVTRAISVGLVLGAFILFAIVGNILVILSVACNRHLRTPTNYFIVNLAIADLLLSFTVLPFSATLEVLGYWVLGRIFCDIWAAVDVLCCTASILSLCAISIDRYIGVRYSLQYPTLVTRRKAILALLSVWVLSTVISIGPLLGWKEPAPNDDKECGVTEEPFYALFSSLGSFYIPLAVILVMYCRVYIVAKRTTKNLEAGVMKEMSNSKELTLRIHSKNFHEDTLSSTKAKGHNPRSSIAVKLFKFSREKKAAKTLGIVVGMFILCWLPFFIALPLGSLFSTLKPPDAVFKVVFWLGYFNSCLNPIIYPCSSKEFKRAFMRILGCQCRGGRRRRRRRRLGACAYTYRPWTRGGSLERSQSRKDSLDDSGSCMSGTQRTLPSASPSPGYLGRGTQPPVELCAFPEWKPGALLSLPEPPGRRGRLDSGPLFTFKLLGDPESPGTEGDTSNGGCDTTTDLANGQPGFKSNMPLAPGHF
T2 sequence (P23944 whole entry): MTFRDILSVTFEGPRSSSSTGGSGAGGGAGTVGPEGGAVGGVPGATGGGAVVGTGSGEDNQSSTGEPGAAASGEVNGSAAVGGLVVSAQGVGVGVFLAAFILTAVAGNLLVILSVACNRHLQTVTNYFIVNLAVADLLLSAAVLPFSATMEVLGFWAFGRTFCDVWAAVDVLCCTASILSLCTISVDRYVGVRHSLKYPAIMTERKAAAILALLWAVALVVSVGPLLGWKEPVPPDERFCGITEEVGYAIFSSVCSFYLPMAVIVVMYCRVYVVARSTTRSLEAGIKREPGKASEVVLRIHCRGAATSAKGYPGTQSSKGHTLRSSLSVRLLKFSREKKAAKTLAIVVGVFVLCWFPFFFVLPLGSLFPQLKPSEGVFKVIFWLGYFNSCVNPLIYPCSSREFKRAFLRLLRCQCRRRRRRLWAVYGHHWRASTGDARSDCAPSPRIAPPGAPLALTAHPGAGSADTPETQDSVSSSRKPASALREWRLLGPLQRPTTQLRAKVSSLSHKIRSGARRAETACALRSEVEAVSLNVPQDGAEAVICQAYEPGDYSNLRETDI
T2 sequence (P43140 whole entry): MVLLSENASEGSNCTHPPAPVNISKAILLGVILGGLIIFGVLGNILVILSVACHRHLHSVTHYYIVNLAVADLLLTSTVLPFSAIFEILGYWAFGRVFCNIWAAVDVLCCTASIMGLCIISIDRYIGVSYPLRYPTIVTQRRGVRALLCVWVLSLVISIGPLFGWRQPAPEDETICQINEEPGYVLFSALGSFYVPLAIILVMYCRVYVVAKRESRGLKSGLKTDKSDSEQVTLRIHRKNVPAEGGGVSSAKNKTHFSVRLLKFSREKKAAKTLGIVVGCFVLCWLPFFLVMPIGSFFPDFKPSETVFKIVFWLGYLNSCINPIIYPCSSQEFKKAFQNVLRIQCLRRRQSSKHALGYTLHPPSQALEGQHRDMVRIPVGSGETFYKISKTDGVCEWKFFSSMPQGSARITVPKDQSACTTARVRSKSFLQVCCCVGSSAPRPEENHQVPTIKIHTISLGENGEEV
The test is described as follows: Binding affinity towards Alpha-1 adrenergic receptor of rat brain.

The target of test [6] is Adrenergic receptor alpha-2 (Homo sapiens) (UniProt P08913+P18825+P18089). As to conditions: Cavia porcellus; Ileum.
Description: Intrinsic activity was expressed as the ratio between maximal response elicited by compound and that elicited by full agonist NE towards Alpha-2 adrenergic receptor of isolated guinea pig ileum
Test [7] concerns the target T1, Adrenergic receptor alpha-1 (Rattus norvegicus). The test is described as follows: Compound was evaluated for alpha adrenoceptor agonistic activity towards alpha 1 receptor of isolated rat vas deferens (exp 1). Type of test: functional, tissue-based.
The target in test [8] is T3, Beta-1 adrenergic receptor (Rattus norvegicus, UniProt P18090). The test is described as follows: Compound was evaluated for beta adrenergic binding affinity towards beta-1 receptor of rat brain.
The target in test [9] is Beta-2 adrenergic receptor (Bos taurus, UniProt Q28044). The test is described as follows: Compound was evaluated for beta adrenergic binding affinity towards beta-2 receptor of bovine lung.
Test [10] addresses T4, Adrenergic receptor alpha-2 (Rattus norvegicus, UniProt P22086+P19328+P22909).
T4 sequence (P22086 whole entry): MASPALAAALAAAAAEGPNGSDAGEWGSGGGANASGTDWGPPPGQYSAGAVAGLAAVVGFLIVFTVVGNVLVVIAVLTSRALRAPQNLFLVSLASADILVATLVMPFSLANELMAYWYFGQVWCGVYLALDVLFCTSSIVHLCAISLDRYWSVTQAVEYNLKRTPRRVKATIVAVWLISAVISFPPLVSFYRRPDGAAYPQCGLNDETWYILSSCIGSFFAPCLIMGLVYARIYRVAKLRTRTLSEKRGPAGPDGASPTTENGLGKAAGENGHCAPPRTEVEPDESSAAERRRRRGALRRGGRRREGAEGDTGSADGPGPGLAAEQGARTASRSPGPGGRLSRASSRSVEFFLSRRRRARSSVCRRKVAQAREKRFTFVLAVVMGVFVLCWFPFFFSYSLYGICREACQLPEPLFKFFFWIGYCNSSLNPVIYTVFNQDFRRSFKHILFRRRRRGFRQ
T4 sequence (P19328 whole entry): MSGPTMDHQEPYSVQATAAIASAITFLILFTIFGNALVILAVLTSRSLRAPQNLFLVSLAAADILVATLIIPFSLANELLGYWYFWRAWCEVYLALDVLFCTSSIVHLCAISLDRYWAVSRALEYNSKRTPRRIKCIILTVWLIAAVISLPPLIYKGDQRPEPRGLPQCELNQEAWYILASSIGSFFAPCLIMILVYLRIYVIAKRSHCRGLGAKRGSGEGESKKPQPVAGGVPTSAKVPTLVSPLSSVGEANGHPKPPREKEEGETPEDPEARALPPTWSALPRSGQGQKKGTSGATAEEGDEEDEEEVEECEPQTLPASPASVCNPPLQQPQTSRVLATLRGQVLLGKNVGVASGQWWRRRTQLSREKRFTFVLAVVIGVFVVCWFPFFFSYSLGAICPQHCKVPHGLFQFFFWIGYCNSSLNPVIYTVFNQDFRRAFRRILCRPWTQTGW
T4 sequence (P22909 whole entry): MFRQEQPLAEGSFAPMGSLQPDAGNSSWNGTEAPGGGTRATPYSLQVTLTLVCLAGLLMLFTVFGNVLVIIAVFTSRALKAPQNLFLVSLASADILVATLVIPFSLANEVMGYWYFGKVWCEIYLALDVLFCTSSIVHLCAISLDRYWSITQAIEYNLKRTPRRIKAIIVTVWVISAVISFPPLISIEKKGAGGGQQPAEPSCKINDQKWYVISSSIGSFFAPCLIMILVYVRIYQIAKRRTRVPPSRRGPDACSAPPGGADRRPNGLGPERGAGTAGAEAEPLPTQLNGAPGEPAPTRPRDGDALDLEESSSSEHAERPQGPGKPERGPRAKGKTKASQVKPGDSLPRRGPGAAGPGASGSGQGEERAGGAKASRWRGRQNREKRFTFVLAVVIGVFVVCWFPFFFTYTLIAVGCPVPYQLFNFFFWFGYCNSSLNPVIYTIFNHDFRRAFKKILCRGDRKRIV
The test is described as follows: Compound was evaluated for alpha adrenergic binding affinity towards Alpha-2 adrenergic receptor of rat brain.

Test [11] concerns the target Beta-1 adrenergic receptor (Cavia porcellus) (UniProt B0FL73). Kind of test: Intrinsic activity was expressed as the ratio between maximal response elicited by compound and that elicited by full agonist ISO towards Beta-1 adrenergic receptor of isolated guinea pig atria (exp 1). It is filed as functional.
In test [12] the target is Beta-2 adrenergic receptor (Cavia porcellus) (UniProt Q8K4Z4). The source holds these as a separate data set.
Description: Compound was evaluated for beta adrenoceptor agonistic activity towards Beta-2 adrenergic receptor of isolated guinea pig tracheal strip (exp 2)
Test [13] has the same target. The test is described as follows: Intrinsic activity was expressed as the ratio between maximal response elicited by compound and that elicited by full agonist ISO towards beta 2 receptor of isolated guinea pig tracheal strip (exp 1). It is filed as functional.
Test [14] has as its target Beta-1 adrenergic receptor (Cavia porcellus) (UniProt B0FL73). Kind of test: Compound was evaluated for beta adrenoceptor agonistic activity towards beta 1 receptor of isolated guinea pig atria (exp 2). Type of test: functional.
Test [15] has the same target. The test is described as follows: Compound was evaluated for beta adrenoceptor agonistic activity towards Beta-1 adrenergic receptor of isolated guinea pig atria (exp 1). It is filed as functional.
Test [16] shares this target. Kind of test: Compound was evaluated for beta adrenergic […].
Test [17] concerns the target Beta-2 adrenergic receptor (Cavia porcellus) (UniProt Q8K4Z4). The test is described as follows: Intrinsic activity was expressed as the ratio between maximal response elicited by compound and that elicited by full agonist ISO towards Beta-2 adrenergic receptor of isolated guinea pig tracheal strip (exp 1). Type of test: functional.
Test [18] shares this target. Kind of test: Intrinsic activity was expressed as the ratio between maximal response elicited by compound and that elicited by full agonist ISO towards beta 2 receptor of isolated guinea pig tracheal strip (exp 2). Type of test: functional.
Test [19] deals with Beta-1 adrenergic receptor (Cavia porcellus) (UniProt B0FL73).
Test [20] has as its target T3, Beta-1 adrenergic receptor.
Description: Compound was evaluated for beta adrenergic binding affinity towards Beta-1 adrenergic receptor of rat brain

Structures are written as SMILES. Bounds are passed on as bounds.

Beta-2 adrenergic receptor (Cavia porcellus), sequence (Q8K4Z4 whole entry, looked up): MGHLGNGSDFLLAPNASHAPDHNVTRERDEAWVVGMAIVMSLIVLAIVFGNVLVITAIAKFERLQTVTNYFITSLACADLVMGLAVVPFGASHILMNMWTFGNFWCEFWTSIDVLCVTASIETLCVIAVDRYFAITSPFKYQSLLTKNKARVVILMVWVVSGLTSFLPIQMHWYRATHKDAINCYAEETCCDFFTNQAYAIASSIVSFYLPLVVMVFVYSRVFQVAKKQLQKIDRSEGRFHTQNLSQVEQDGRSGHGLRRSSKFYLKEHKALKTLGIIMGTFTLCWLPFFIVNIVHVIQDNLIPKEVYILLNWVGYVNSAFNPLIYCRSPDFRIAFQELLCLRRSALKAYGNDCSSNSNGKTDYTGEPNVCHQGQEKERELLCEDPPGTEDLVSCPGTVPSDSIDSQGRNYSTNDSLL
T3 sequence (P18090 whole entry): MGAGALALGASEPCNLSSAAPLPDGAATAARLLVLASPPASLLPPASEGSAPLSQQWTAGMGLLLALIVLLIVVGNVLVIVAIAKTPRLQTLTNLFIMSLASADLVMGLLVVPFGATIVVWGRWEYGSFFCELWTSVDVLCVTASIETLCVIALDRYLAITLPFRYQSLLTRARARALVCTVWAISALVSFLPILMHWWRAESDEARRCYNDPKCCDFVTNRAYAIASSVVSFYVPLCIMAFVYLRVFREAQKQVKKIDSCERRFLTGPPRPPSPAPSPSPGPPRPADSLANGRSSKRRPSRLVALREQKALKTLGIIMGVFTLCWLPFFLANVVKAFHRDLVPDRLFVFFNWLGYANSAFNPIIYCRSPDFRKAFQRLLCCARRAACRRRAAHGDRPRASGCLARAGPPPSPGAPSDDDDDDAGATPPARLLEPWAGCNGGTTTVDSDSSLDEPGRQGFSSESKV
Beta-2 adrenergic receptor, sequence (Q28044 whole entry): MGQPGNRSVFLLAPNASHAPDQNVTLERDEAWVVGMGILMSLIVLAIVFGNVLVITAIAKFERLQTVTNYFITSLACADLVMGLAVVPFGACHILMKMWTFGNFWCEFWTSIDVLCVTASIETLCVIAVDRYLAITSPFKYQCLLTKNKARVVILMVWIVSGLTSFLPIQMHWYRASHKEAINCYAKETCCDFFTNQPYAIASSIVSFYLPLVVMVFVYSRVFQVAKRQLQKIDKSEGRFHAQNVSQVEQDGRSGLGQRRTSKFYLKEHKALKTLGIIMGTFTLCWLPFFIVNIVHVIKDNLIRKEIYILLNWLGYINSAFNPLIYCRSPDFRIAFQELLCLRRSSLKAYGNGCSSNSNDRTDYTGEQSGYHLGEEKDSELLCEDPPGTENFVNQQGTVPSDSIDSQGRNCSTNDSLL
Beta-1 adrenergic receptor (Cavia porcellus), sequence (B0FL73 1-467): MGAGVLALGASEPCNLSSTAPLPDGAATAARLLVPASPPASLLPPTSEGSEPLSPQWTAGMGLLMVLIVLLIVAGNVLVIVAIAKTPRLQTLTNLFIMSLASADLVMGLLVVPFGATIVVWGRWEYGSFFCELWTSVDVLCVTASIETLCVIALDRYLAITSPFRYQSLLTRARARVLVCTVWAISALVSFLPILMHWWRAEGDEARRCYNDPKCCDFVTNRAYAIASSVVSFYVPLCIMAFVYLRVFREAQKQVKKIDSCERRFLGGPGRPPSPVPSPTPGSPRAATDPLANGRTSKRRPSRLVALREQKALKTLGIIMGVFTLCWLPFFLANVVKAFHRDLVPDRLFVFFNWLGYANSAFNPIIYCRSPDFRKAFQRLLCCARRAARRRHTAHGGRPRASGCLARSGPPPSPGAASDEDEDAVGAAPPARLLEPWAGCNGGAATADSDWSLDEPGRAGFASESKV

For the compound `Oc1ccc(C2CNCCO2)cc1O` (configuration not stated), the Intrinsic activity in [1] and in test [3] was 0.91 each time. Moreover, the pD2 was 4.76 in test [2], 5.31 in test [4], 7.34 in test [6] and 4.88 in test [7]. Moreover, the Ki came to 7.4 µM in test [5], 15 µM in [8], 9.2 µM in [9] and 0.026 µM in test [10].

As to `CC(C)N1CCOC(c2ccc(O)c(O)c2)C1` (configuration not stated), the Intrinsic activity stood at 0.88 in test [11], 0.87 in test [13], 0.77 in [15] and 0.93 in test [18]. In addition, the pD2 in test [12] turned out to be 6.34; in test [14], 5.74; in test [6], 5; in test [16], 4.62; in test [17], 5.91. Further, the Ki in [5] turned out to be 6.7 µM; in test [8], 48 µM; in test [9] it was 36 µM; in test [10] it was 5.1 µM.

Consider `Oc1ccc(C2(O)CCCNC2)cc1O` (configuration not stated), for which, in test [1], the Intrinsic activity was 0.95. For the same compound, the pD2 in [2] came to 4.44; in test [19] it was 3.81; in [6], 5.56; in [7], 4.76. The inhibition constant Ki in test [5] was 15 µM; in test [9] it was over 100 µM; in test [10], 0.5 µM; in [20] it was over 100 µM.

The Ki is a measure of affinity in units of concentration, obtained from inhibition or displacement. High values mean weaker binding, low ones tighter binding.
